Data on 19 compounds can be found in patent publication US20120128715A1, “METHOD FOR STIMULATING THE IMMUNE RESPONSE OF NEWBORNS” (3M INNOVATIVE PROPERTIES COMPANY, priority 2004, published 2012).

No end group written: not given here. 2,3‑bisacyloxypropyl = 2,3-bisacyloxypropyl group on the Cys sulfur

Experiment [1] has as its system TLR8 and TLR7. Briefly: TLR agonism and TLR8 selectivity (TLR-mediated activity). It is filed as cell-based. The note with it: for concentration inducing TLR8 activity as fraction of that necessary to induce TLR7-mediated activity: TLR8 vs TLR7 selectivity; for TLR8 selectivity: named as examples of TLR8-selective compounds. The source says:
The TLR agonism for a particular compound may be assessed in any suitable manner.
Conversely, a compound may be identified as not acting as an agonist of a specified TLR if, when used to perform an assay designed to detect biological activity mediated by the specified TLR, the compound fails to elicit a threshold increase in the biological activity. […] An assay may or may not be performed in conjunction with the appropriate control.
A significant degree may be, for example, inducing activity mediated by one TLR (e.g., TLR8) when administered at half the concentration necessary to induce activity through another TLR (e.g., TLR7).
Assays employing HEK293 cells transfected with an expressible TLR structural gene may use a threshold of, for example, at least a three-fold increase in a TLR-mediated biological activity (e.g., NFκB activation) when the compound is provided at a concentration of, for example, from about 1 μM to about 10 μM for identifying a compound as an agonist of the TLR transfected into the cell. However, different thresholds and/or different concentration ranges may be suitable in certain circumstances. Also, different thresholds may be appropriate for different assays.

The test system of experiment [2] is TLR8 and TLR7. The following applies: cited from earlier work.
The subject of experiment [3] is newborn cord blood and adult peripheral blood. Briefly: TLR ligand-induced TNF-α release in whole blood ex vivo (ELISA). It counts as cell-based, human. The note with it: for ligand-induced TNF-α release in newborn cord blood compared with adult peripheral blood: 5-hour incubation, FIGS. 1A-1E. The protocol: Peripheral blood was collected from healthy adult volunteers (N=26 individual volunteers; mean age 27 years; 45% male, 55% female) and newborn cord blood (N=63; mean gestational age 39 weeks; 43% male, 57% female) collected immediately after cesarean section delivery (epidural anesthesia) of the placenta or from the umbilical cord immediately after vaginal birth but prior to delivery of the placenta. Births at which antibiotics were administered during labor and/or delivery, and births to HIV-positive mothers were excluded. Human experimentation guidelines of the US Department of Health and Human Services and the Brigham & Women's Hospital were observed, following protocols approved by the local Institutional Review Board. Blood was anticoagulated with 129 mM sodium citrate (Becton Dickinson, Franklin Lakes, N.J.). Hemocytes were collected by centrifugation of blood, followed by washing three times with Hank's Balanced Salt Solution (HBSS) buffer without magnesium or calcium (Gibco BRL, Grand Island, N.Y.) and then resuspension in either autologous or heterologous 100% plasma.
TLR ligands included the synthetic triacylated BLP (tBLP) Pam3-CSSNA (Bachem Bioscience, King of Prussia, Pa.) corresponding to the N-terminus of a BLP from E. coli B/r (Biesert et al. 1987. Eur J Biochem 162:651), the synthetic diacylated BLP macrophage-activating lipopeptide-2 (MALP; S-(2,3-bisAcyloxypropyl)-cysteine-[…] (SEQ ID NO: 5); Alexis Biochemicals, Lausen, Switzerland) from Mycoplasma fermentans (Muhlradt et al. 1997. J Exp Med. 185:1951), ultrapure Re 595 LPS from Salmonella minnesota (List Biologicals, Campbell, Calif.), and the IRM compounds imiquimod (3M Pharmaceuticals, Northridge, Calif.), and resiquimod (InvivoGen, San Diego, Calif.). Specificity of individual TLR ligands for their cognate receptors was confirmed using either NF-kB luciferase reporter and TLR co-transfected Human Embryonic Kidney (HEK) 293 cells or a neutralizing mAb to TLR2 (Levy, O. et al. 2003. Infect Immun 71:6344), as previously described.
After incubation of TLR ligands in blood or monocyte suspensions for 5 hours at 37° C. with end-over-end rotation, samples were diluted with five volumes of ice-cold RPMI medium (Gibco BRL) and centrifuged at 1,000×g at 4° C. for 5 minutes. The supernatant was recovered and stored at −20° C. until assay of TNF-α by ELISA (R&D Systems, Minneapolis, Minn.).
TLR ligand-induced TNF-α release in whole human blood ex vivo as described above in Example 1. The single stranded ribonucleic acid (ssRNA) tested in this example was ssRNA40/LyoVec purchased from InvivoGen (San Diego, Calif.) comprised of single-stranded GU-rich oligonucleotide (5′-GsCsCsCsGsUsCsUsGsUsUsGsUsGsUsGsAsCsUsC-3′ (SEQ ID NO:1); where “s” depicts a phosphothioate linkage complexed with the cationic lipid LyoVec that protects the RNA from degradation and enhance is uptake by immune cells. The guanosine analog loxoribine (TLR7 ligand) was purchased from InvivoGen.
(In general: In an ELISA, binding on a coated surface is turned into a signal by an enzyme label.)

In experiment [4] the test system is neonatal myeloid dendritic cells (mDCs). Briefly: CD40 expression on myeloid dendritic cells in whole blood (flow cytometry). It is filed as cell-based, human. The note with it: imiquimod 250 μM, resiquimod 50 μM, 19 hours; FIGS. 15A-15D. The protocol:
After lysis of red blood cells and fixation, mDCs were identified as lint-/HLA-DR+/CD11c+ cells using four color flow cytometry (BD BioSciences) and CD40 was measured using a PE-conjugated mAb.
Newborn cord or adult peripheral blood was incubated with TLR agonists at 37° C. for 19 hours. mDCs were identified by flow cytometry and the level of expression of CD40 was measured using a PE-conjugated mAb.
CD40 expression on mDCs was studied in whole newborn cord blood, in comparison to those of adult peripheral blood, using four-color flow cytometry (BD Biosciences). mDCs were identified as lineage 1-/HLA-DR+/CD11c+ cells. Upregulation of surface CD40 expression was measured using a phycoerythrin-conjugated anti-CD40 mAb.
(In flow cytometry, cells or beads pass a laser one at a time.)

For the compound `CC(C)c1nc2c(N)nc3ccccc3c2s1` [2-(1-methylethyl)thiazolo[4,5-c]quinolin-4-amine], the “concentration inducing TLR8 activity as fraction of that necessary to induce TLR7-mediated activity” value in experiment [1] was “less than one-fifth”. Still for that read-out and setting: for `CC(C)Cc1nc2c(N)nc3ccccc3c2s1` [2-(2-methylpropyl)thiazolo[4,5-c]quinolin-4-amine] the value was “less than one-fifth”. As to `CCCCc1nc2c(N)nc3cccnc3c2s1` [2-butylthiazolo[4,5-c][1,5]naphthyridin-4-amine], the TLR8 selectivity entry in experiment [1] is “TLR8-selective”. For the compound `CCCc1nc2c(N)nc3cccnc3c2s1` [2-propylthiazolo[4,5-c][1,5]naphthyridin-4-amine], the “concentration inducing TLR8 activity as fraction of that necessary to induce TLR7-mediated activity” value in experiment [1] is “less than one-fifth”. With `CCCc1nc2c(N)nc3ccc(N)cc3c2s1` [2-propylthiazolo[4,5-c]quinoline-4,8-diamine], the TLR8 selectivity entry in experiment [1] was “TLR8-selective”. As for `CCCc1nc2c(N)nc3cc(OCCOCCCl)ccc3c2s1` [7-[2-(2-chloroethoxy)ethoxy]-2-propyl[1,3]thiazolo[4,5-c]quinolin-4-amine], in experiment [1], the “concentration inducing TLR8 activity as fraction of that necessary to induce TLR7-mediated activity” value is listed as “less than one-fifth”.

Take `CCCc1nc2c(N)nc3cc(F)ccc3c2s1` [7-fluoro-2-propylthiazolo[4,5-c]quinolin-4-amine]: the “concentration inducing TLR8 activity as fraction of that necessary to induce TLR7-mediated activity” value in experiment [1] is given as “less than one-fifth”. Still for that read-out and setting: then `CCCc1nc2c(N)nc3ccc(C)cc3c2s1` [8-methyl-2-propylthiazolo[4,5-c]quinolin-4-amine], with “less than one-fifth”. For `CCOCc1nc2c(N)nc3c(c2n1CC(C)(C)O)CCCC3` [IRM3, 4-amino-2-(ethoxymethyl)-α,α-dimethyl-6,7,8,9-tetrahydro-1H-imidazo[4,5-c]quinoline-1-ethanol], the “TLR agonism (which TLR)” value in experiment [2] is “agonist of both TLR7 and TLR8”.

In the case of `CCCc1nc2c(N)nc3cc(-c4cccc(NS(C)(=O)=O)c4)ccc3c2s1` [N-[3-(4-amino-2-propylthiazolo[4,5-c]quinolin-7-yl)phenyl]methanesulfonamide], the “concentration inducing TLR8 activity as fraction of that necessary to induce TLR7-mediated activity” value in experiment [1] is listed as “less than one-fifth”.

Take `CCCc1nc2c(N)nc3cc(OCCCNS(=O)(=O)c4cccc5c(N(C)C)cccc45)ccc3c2s1` [N-{3-[(4-amino-2-propyl[1,3]thiazolo[4,5-c]quinolin-7-yl)oxy]propyl}-5-(dimethylamino)naphthalene-1-sulfonamide]: in experiment [1], the “concentration inducing TLR8 activity as fraction of that necessary to induce TLR7-mediated activity” value was “one half to about one-fifth”.

As for `CCCc1nc2c(N)nc3cc(OCCCCCCNS(C)(=O)=O)ccc3c2s1` [N-{6-[(4-amino-2-propyl[1,3]thiazolo[4,5-c]quinolin-7-yl)oxy]hexyl}methanesulfonamide], the “concentration inducing TLR8 activity as fraction of that necessary to induce TLR7-mediated activity” value in experiment [1] is recorded as “less than one-fifth”. As to `CC(C)Cn1cnc2c(N)nc3ccccc3c21` [imiquimod], the “ligand-induced TNF-α release in newborn cord blood compared with adult peripheral blood” value in experiment [3] was “impaired”. In experiment [2], the “TLR agonism (which TLR)” value was “agonist at TLR7 receptors”. Besides, in experiment [4], the “upregulation of CD40 expression in neonatal mDCs” value is recorded as “does not”. Turning to `CCOCc1nc2c(N)nc3ccccc3c2n1CC(C)(C)O` [resiquimod], the “potency relative to imiquimod” value in experiment [1] (FIG. 11) was about 100 fold. Consider `CCCc1nc2c(N)nc3cc(OCCNC(=O)OC(C)(C)C)ccc3c2s1` [tert-butyl 2-[(4-amino-2-propyl[1,3]thiazolo[4,5-c]quinolin-7-yl)oxy]ethylcarbamate], for which the “concentration inducing TLR8 activity as fraction of that necessary to induce TLR7-mediated activity” value in experiment [1] is on record as “one half to about one-fifth”. Still for that read-out and setting: for `CCCc1nc2c(N)nc3cc(OCCOCCNC(=O)OC(C)(C)C)ccc3c2s1` [tert-butyl 2{-2-[(4-amino-2-propyl[1,3]thiazolo[4,5-c]quinolin-7-yl)oxy]ethoxy}ethylcarbamate] the value was “less than one-fifth”; for `CCCc1nc2c(N)nc3cc(OCCCNC(=O)OC(C)(C)C)ccc3c2s1` [tert-butyl 3-[(4-amino-2-propyl[1,3]thiazolo[4,5-c]quinolin-7-yl)oxy]propylcarbamate], “less than one-fifth”. Regarding Pam3-CSSNA [tBLP], in experiment [3], the “ligand-induced TNF-α release in newborn cord blood compared with adult peripheral blood” value is given as “impaired”. Further, the “ligand-induced TNF-α release in cord blood compared with adult controls” value in experiment [3] (cord blood from both Caesarian-section and vaginal deliveries, 5 hours, FIGS. 2A-2C) is recorded as “impaired”. Besides, the “magnitude and kinetics of ligand-induced TNF-α release in newborn cord vs. adult peripheral blood” value in experiment [3] (time course, FIGS. 3A-3C) is given as “lower magnitude, but similar kinetics”. With “S-(2,3-bisAcyloxypropyl)-cysteine-GNNDESNISFKEK (C(2,3‑bisacyloxypropyl)GNNDESNISFKEK; also: acyl groups not given here) [MALP, synthetic diacylated BLP from Mycoplasma fermentans (TLR2/6)]”, the “ligand-induced TNF-α release in newborn cord blood compared with adult peripheral blood” value in experiment [3] is “impaired”.
